The values that follow come from paper PMC12028564, “A New Class of BRCA1 Mimetics for ERα-Positive Breast Cancer Therapy: Design, Synthesis, In Silico Screening, In Vitro Assay, and Gene Expression Analysis” (Life, 2025).

Where two headings read alike, the source gives them in different places.

One experiment has as its system Vero cells. In words: MTT cytotoxicity assay on Vero cells. The experiment is classed as cell-based. The source says:
(§1) Vero cells are known for their ability to assess the safety of new compounds and their sensitivity to a wide range of toxic substances. MDA-MB-231 cells are derived from human […] breast cancer tissue. MDA-MB-231 cells provide a reliable method for assessing the toxicity and effectiveness of potential anticancer compounds, especially those that target estrogen receptors or associated pathways. We assessed the anticancer activity of the compounds on Vero cells and MDA-MB-231 using the MTT (3-(4,5-dimethyl thiazol-2yl)-2,5-diphenyl tetrazolium bromide) assay. The MTT assay is one of the most commonly used for cancer drug screening. This is a basic and easy assay for cytotoxicity, and it is one of the most popular cytotoxicity assays in the research laboratory. We plated cells (1 × 10^5/well) in 96-well plates using 0.2 mL of medium per well. We carefully removed the media from the wells for the MTT assay after incubation. After two to three MEM (w/o) FCS washes, 200 µL of MTT (5 mg/mL) was added to each well. We incubated the plates for 6–7 h in a 5% CO^2 incubator to test for cytotoxicity. Following the incubation, we added […] of vehicle (DMSO) to each well, mixed it thoroughly with a micropipette, and left it for 45 s. NADPH-dependent dehydrogenase catalyzes the conversion of tetrazolium salt (MTT) into a purple formazan product in cells. This indicates the presence of metabolically active cells. We placed the solution in the spectrophotometer’s cuvette and recorded the optical density at 595 nm, using DMSO as the blank reference. Measurements were conducted, and the concentration required for 50% inhibition of viability (IC50) was visually determined. A standard graph was constructed, with the drug concentration plotted on the X-axis and relative cell viability on the Y-axis. %Cell Viability=Mean Optical Density of Individual Sample/Mean Optical Density of Control×100

The subject of experiment [1] is MDA-MB-231 cells. In words: MTT cytotoxicity assay on MDA-MB-231 cells. The experiment is classed as cell-based, human.
Text: as §1
A general note: Tetrazolium assays rely on reduction of a dye to a coloured formazan, in cell work by metabolically active cells.

The next experiment concerns Cyclin D1. In words: RT-qPCR gene expression of Cyclin D1 (ΔΔCt method, GAPDH reference) in MDA-MB-231 cells. The experiment is classed as cell-based, human. To be noted: for Cyclin D1 ΔΔCt: versus cell control. The source says: (§2) To determine whether the synthesized compounds were repressing the ER alpha protein or not, we performed gene expression analyses for Cyclin D1 and BCL2 using the real-time quantitative polymerase chain reaction (RT-qPCR). RT-qPCR is an efficient, simple, and low-cost technique to quantify gene expression levels. The delta-delta Ct (ΔΔCt) method is a widely used technique for analyzing real-time quantitative PCR (qPCR) data. We chose three compounds, 9b, 9l, and 9m, based on their lowest IC50 values and conducted gene expression studies for BCL2 and Cyclin D1. We used the GAPDH as a reference gene. We chose primer pairings with the lowest penalty value designed by the Primer Express 2.0 software to obtain the best results.
A 100-picomolar primer stock was prepared utilizing primers of Cyclin D1, BCL2, and GAPDH (Table 6), which were then diluted to a 10-picomolar working stock for use in real-time PCR. RNA was extracted from four samples utilizing the PureLink RNA Mini Kit and quantified using the Biophotometer Plus (Table 3). A total of 1 µg of RNA was taken from the isolated RNA and used for cDNA synthesis with the Takara Prime Script 1st Strand cDNA Synthesis Kit. Each real-time PCR experiment utilized 25 ng of cDNA, 10 picomolar forward and reverse primers, and a final reaction volume of 20 µL. Cyclin D1, BCL2, and GAPDH average Ct values were extracted from each sample’s replicates. Then, using the formula below (1), we determined the ΔCt from the mean Ct values of Cyclin D1 and BCL2 with reference to the reference gene’s GAPDH mean Ct values. In the real-time qPCR, the temperature was set at 95 °C for 10 min (denaturation), then 40 cycles at 95 °C for 15 s and 60 °C for one minute. Each sample was processed in triplicate in six-well plates for the qPCR analysis using the Qiagen kit. The comparative Ct was used for quantification analysis, and the Ct values (Ct1, Ct2, and Ct3) were averaged.ΔCt = Ct (gene of interest) − Ct (housekeeping gene)(1)
We calculated the ΔΔCt from the ΔCt values of the Cyclin D1 and BCL2. The […] were calculated using the following Formula (2).ΔΔCt = ΔCt (Sample) − ΔCt (Control)(2)
Finally, we calculated the fold gene expression for CyclinD1 and BCL2 with reference to the reference gene GAPDH using the following Formula (3) (Table 5).Fold gene expression = 2^−ΔΔCt(3)
Background: In qPCR the cycle at which signal appears reflects the starting amount.

For another experiment, the system named is BCL2. In words: RT-qPCR gene expression of BCL2 (ΔΔCt method, GAPDH reference) in MDA-MB-231 cells. It counts as cell-based, human. As to conditions: versus cell control.
Text: as §2, with “We chose primer pairings with the lowest penalty value designed by the Primer Express 2.0 software to obtain the best results.” left out
A 100-picomolar primer stock was prepared utilizing primers of Cyclin D1, BCL2, and GAPDH (Table 6), which were then diluted to a 10-picomolar working stock for use in real-time PCR. RNA was extracted from four samples utilizing the PureLink RNA Mini Kit and quantified using the Biophotometer Plus (Table 3). […] Then, using the formula below (1), we determined the ΔCt from the mean Ct values of Cyclin D1 and BCL2 with reference to the reference gene’s GAPDH mean Ct values. […] The comparative Ct was used for quantification analysis, and the Ct values (Ct1, Ct2, and Ct3) were averaged.ΔCt = Ct (gene of interest) − Ct (housekeeping gene)(1)
We calculated the ΔΔCt from the ΔCt values of the Cyclin D1 and BCL2. […]

The subject of experiment [2] is MDA-MB-231 cells. The arrangement: method as in PMID 24278556. As to conditions: reference drug, reported value; cited from earlier work.

The term IC50 denotes the concentration that inhibits the measured activity by half. In the case of `Cc1c/c(=N\NC(=S)/N=C/c2ccc(Br)cc2)oc2cc(O)ccc12` [Compound 7m], the half-maximal inhibitory concentration (IC50) in the experiment on Vero cells stood at 149 µM; with MDA-MB-231 cells [1], 90.5 µM.
Turning to `O=[N+]([O-])c1ccc(/C=N/C(=S)N/N=c2\cc(O)c3ccccc3o2)cc1` [Compound 9l], the values for the IC50 in the experiment on Vero cells (Chlorocebus sabaeus) and with MDA-MB-231 cells [1] (Homo sapiens) were 87.7 µM and 35.1 µM, respectively. For the same compound, the “Cyclin D1 ΔΔCt” value with Cyclin D1 was determined as 2.2.
For the compound `COc1ccc(/C=N/C(=S)N/N=c2\cc(C)c3ccc(O)cc3o2)cc1` [Compound 7i], the half-maximal inhibitory concentration (IC50) in the experiment on Vero cells was found to be 292 µM; in the experiment on MDA-MB-231 cells [1] it was 237 µM.
As to `Oc1c/c(=N\NC(=S)/N=C/c2ccc(Br)cc2)oc2ccccc12` [Compound 9m], the IC50 in the experiment with Vero cells (Chlorocebus sabaeus) was 68.7 µM; in the experiment on MDA-MB-231 cells [1] (Homo sapiens), 42.1 µM. Besides, the “Cyclin D1 ΔΔCt” value in the experiment on Cyclin D1 is 2.03. Further, the “BCL2 ΔΔCt” value in the experiment on BCL2 worked out at 1.41.
In the case of `Oc1c/c(=N\NC(=S)/N=C/c2ccc(Cl)cc2)oc2ccccc12` [Compound 9b], the IC50 in the experiment on Vero cells (Chlorocebus sabaeus) was found to be 60.9 µM; in the experiment with MDA-MB-231 cells [1] (Homo sapiens) it was 14.5 µM. Moreover, in the experiment with Cyclin D1 (control = 1), the “Relative gene expression CyclinD1” value came to 1.485. The “Cyclin D1 2^(−ΔΔCt)” value in the experiment with Cyclin D1 (fold gene expression) is listed as 1.485. In addition, the “Cyclin D1 ΔΔCt” value with Cyclin D1 is −0.57. Moreover, the “BCL2 ΔΔCt” value with BCL2 amounted to 1.42.
For `Oc1cc(/C=N/C(=S)N/N=c2\cc(O)c3ccccc3o2)cc(O)c1O` [Compound 9n], the figures for the IC50 in the experiment on Vero cells and in the experiment on MDA-MB-231 cells [1] were 119 µM and 47.7 µM, respectively.
With `O=C(c1ccc(OCCN2CCCCC2)cc1)c1c(-c2ccc(O)cc2)sc2cc(O)ccc12` [Raloxifene], the concentration for half-maximal inhibition (IC50) in the experiment on MDA-MB-231 cells [2] is 13.7 µM.
Consider `Cc1c/c(=N\NC(=S)/N=C/c2ccc(Cl)cc2Cl)oc2cc(O)ccc12` [Compound 7a], for which the half-maximal inhibitory concentration (IC50) in the experiment with Vero cells turned out to be 513 µM; with MDA-MB-231 cells [1] it was 357 µM.
The like results for `Oc1c/c(=N\NC(=S)/N=C/c2cccc3ccccc23)oc2ccccc12` [Compound 9c] were, in that order, 87.4 µM and 61.5 µM.
